Source: patent US20120128654A1, “Allantoin Administration for the Treatment of Neurodegenerative Disease and Neurotrauma” (UNIVERSITY OF CINCINNATI, priority 2009, published 2012)

Tested on: nigral THir neurons
Assay: Unbiased stereological counts of THir cells in the substantia nigra after striatal 6-OHDA
Assay type: in vivo, Sprague Dawley rats
Conditions: for number of surviving THir neurons in the lesioned SN relative to the intact side: s.c. pellets 3 days prior to intrastriatal 6-OHDA, 6 weeks post-6-OHDA (experiment 1); for protection of nigral THir neurons against striatal 6-OHDA infusion: s.c. pellets, 6 weeks post-6-OHDA, vs control
Protocol: Rats were anesthetized prior to surgery with Equi-Thesin (0.3 ml/100 g body weight i.p.; chloral hydrate 42.5 mg/ml+sodium pentobarbital 9.72 mg/ml), their heads shaved, and then they were placed in a stereotaxic frame. Their skin was swabbed with Betadyne followed by 70% ETOH. The scalp was then opened to expose the skull. Two 1 mm holes were drilled into the skull and rats were injected in two sites in the striatum with 6-OHDA (MP Biomedicals, Solon, Ohio; 5 μg/μl 6-OHDA in 0.2% ascorbic acid, 0.9% saline solution). The coordinates for these injections were AP −1.6 mm, ML +2.4 mm, DV −4.2 mm and AP −0.2 mm, +ML 2.6 mm, DV −7.0 mm. The needle was zeroed at the skull directly above the injection site in order to target the DV coordinate. For each injection, the needle was lowered slowly to the injection site and 1 minute elapsed before injection commenced, 6-OHDA was injected at 0.5 μl/minute and at the end of the injection the needle was held in place for an additional 2 minutes prior to retraction. The wound area was cleaned with Betadine solution and the scalp was closed with surgical wound clips. This lesion paradigm results in a progressive loss of TH phenotype and frank DA cell death.
Animals were deeply anesthetized (60 mg/kg, pentobarbital, i.p.) and perfused intracardially with warm 0.9% saline containing 1 ml/L 10,000 USP heparin followed by ice-cold 0.9% saline. For immunoshistochemistry brains were removed, post fixed for 24 hours in 4% paraformaldehyde and transferred to 30% sucrose in 0.1M PO4 buffer. For determination of purine levels brains were immediately removed and flash frozen in 3-methyl butane. Brains were stored at −80° C. until analysis.
Brains were frozen on dry ice and sectioned at a 40 μm thickness using a sliding microtome. Every sixth section through the SN was processed for labeling with antisera against TH. Following blocking in 10% normal goat serum, tissue was incubated in primary antisera directed against TH (Chemicon MAB318, mouse anti TH 1:4,000) overnight at room temperature. Following primary incubation, sections were incubated in biotinylated secondary antisera against mouse IgG (Chemicon AP124B, 1:400) followed by the Vector ABC detection kit employing horseradish peroxidase (Vector Laboratories, Burlingame, Calif.). Antibody labeling was visualized by exposure to 0.5 mg/ml 3,3′ diaminobenzidine (DAB) and 0.03% H2O2 in Tris buffer. Sections were mounted on subbed slides, dehydrated to xylene and coverslipped with Cytoseal (Richard-Allan Scientific, Waltham, Mass.).
Unbiased stereological counts of THir cells were performed using a BX52 Olympus microscope (Olympus America Inc.) interfaced with Microbrightfield stereological software and a Microfire CCD camera (Optronics, Goleta, Calif.). Utilizing 2 μm guard zones and a 50 μm×50 μm counting frame a grid size of 112 μm×183 μm was employed to assure that all coefficient of error values were ≦0.10. Using the optical fractionator principle, the regions of interest were individually outlined under a low magnification (1.25×). Using a 60× magnification lens with a 1.4 N/A the section thickness was empirically determined by first bringing the top of the section into focus and then using Microbrightfield software to step through the z-axis in 1 μm increments until the very bottom of the section was in focus. […]

OC[C@H]1O[C@@H](n2cnc3c(O)ncnc32)[C@H](O)[C@@H]1O [inosine] was tested, and the “number of surviving THir neurons in the lesioned SN relative to the intact side” value was 56%±9.0% and the “protection of nigral THir neurons against striatal 6-OHDA infusion” value was “significantly protected”.

For NC(=O)NC1NC(=O)NC1=O (stereo not shown) [allantoin], the “number of surviving THir neurons in the lesioned SN relative to the intact side” value was 61%±7.9% and the “protection of nigral THir neurons against striatal 6-OHDA infusion” value was “significantly protected”.
